According to paper PMC11377560, “Structural insights into the molecular effects of the anthelmintics monepantel and betaine on the Caenorhabditis elegans acetylcholine receptor ACR-23” (The EMBO Journal, 2024):

Columns and labels:
[1] = target: T1, ACR-23 (acetylcholine receptor like-23) (Caenorhabditis elegans, UniProt G5EG88); test: cryo-EM structure ([…] Å, betaine co-bound); EC50 by whole-cell patch clamp in HEK293 cells; assay type: cell-based
T1 construct: homo-pentamer; M3-M4 loop (residues Lys 386 to Gln 437) replaced with bRIL, C-terminal strep tag (cryo-EM); ACR-23 with C-terminal GFP in HEK293 cells (EC50)
T1 sequence (G5EG88 20-545): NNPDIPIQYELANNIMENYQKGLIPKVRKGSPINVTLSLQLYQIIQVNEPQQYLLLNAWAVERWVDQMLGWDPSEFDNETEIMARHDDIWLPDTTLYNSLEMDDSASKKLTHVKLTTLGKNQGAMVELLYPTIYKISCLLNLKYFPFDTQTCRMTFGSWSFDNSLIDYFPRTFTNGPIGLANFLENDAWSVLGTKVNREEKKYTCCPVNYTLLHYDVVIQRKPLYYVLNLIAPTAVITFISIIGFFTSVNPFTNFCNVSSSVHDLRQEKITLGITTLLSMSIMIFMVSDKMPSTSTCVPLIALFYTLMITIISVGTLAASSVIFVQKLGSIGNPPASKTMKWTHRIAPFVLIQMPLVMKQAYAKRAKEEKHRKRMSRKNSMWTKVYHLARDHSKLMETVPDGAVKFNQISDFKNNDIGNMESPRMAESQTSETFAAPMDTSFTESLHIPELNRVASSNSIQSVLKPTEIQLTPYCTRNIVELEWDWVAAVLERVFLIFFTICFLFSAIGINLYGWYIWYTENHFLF

[2] = target: T1, ACR-23 (acetylcholine receptor like-23); test: cryo-EM structure ([…] Å); EC50 by whole-cell patch clamp in HEK293 cells; assay type: cell-based
[3] = target: engineered ACR-23 (acetylcholine receptor like-23), M3-M4 loop replaced with bRIL (Caenorhabditis elegans | not stated) (UniProt G5EG88); test: cryo-EM structure; single particle cryo-EM of purified ACR-23 in DDM/CHS, 20 mM Tris pH 8.0, 150 mM NaCl; apo, with 1.5 mM betaine, or with 1.5 mM betaine and 5 mM monepantel; homo-pentamer in all three states

`CC(C#N)(COc1cc(C#N)ccc1C(F)(F)F)NC(=O)c1ccc(SC(F)(F)F)cc1` (racemic) [monepantel] was tested, and the EC50 [1] was 2.13 µM.

`C[N+](C)(C)CC(=O)O` [betaine] showed an EC50 [2] of roughly 34.4 µM.

With “engineered ACR-23 (acetylcholine receptor like-23), M3-M4 loop replaced with bRIL (from UniProt G5EG88 20-385; G5EG88 438-545)” the stoichiometry N [3] was 5.
